Experimental data published in patent publication US9133183B2, “Imidazolidinones and analogs exhibiting anti-cancer and anti-proliferative activities” (Deciphera Pharmaceuticals, LLC, priority 2013, dated 2015).

Legend:
M-NFS-60 cells = experiment: M-NFS-60 cell proliferation assay (resazurin); format: cell-based; details: 67 h incubation
Procedure: M-NFS-60 cells (catalog #CRL-1838) were obtained from the American Type Culture Collection (ATCC, Manassas, Va.). Briefly, cells were grown in suspension in RPMI 1640 medium supplemented with 10% characterized fetal bovine serum (Invitrogen, Carlsbad, Calif.), 0.05 mM 2-mercaptoethanol, and 20 ng/mL mouse recombinant macrophage colony stimulating factor (M-CSF) at 37° C., 5% CO2, and 95% humidity. Cells were allowed to expand until reaching saturation at which point they were subcultured or harvested for assay use.
M-NFS-60 Cell Proliferation Assay
A serial dilution of test compound was dispensed into a 384-well black clear bottom plate (Corning, Corning, N.Y.). Two thousand five hundred cells were added per well in 50 μL complete growth medium. Plates were incubated for 67 h at 37° C., 5% CO2, and 95% humidity. At the end of the incubation period 10 μL of a 440 μM solution of resazurin (Sigma, St. Louis, Mo.) in PBS was added to each well and incubated for an additional 5 h at 37° C., 5% CO2, and 95% humidity. Plates were read on a Synergy2 reader (Biotek, Winooski, Vt.) using an excitation of 540 nm and an emission of 600 nm. IC50 values were calculated from a series of percent inhibition values determined at a range of inhibitor concentrations using software routines as implemented in the GraphPad Prism software package.

[1] = target: unphosphorylated c-FMS kinase (uFMS, Seq. ID no. 1) (Homo sapiens (Human), UniProt P07333); experiment: uFMS kinase assay (ADP production coupled to pyruvate kinase/lactate dehydrogenase); format: biochemical; details: enzymatic assay, ATP 500 μM; read-out: uFMS
Sequence of unphosphorylated c-FMS kinase (uFMS, Seq. ID no. 1) (P07333 538-972): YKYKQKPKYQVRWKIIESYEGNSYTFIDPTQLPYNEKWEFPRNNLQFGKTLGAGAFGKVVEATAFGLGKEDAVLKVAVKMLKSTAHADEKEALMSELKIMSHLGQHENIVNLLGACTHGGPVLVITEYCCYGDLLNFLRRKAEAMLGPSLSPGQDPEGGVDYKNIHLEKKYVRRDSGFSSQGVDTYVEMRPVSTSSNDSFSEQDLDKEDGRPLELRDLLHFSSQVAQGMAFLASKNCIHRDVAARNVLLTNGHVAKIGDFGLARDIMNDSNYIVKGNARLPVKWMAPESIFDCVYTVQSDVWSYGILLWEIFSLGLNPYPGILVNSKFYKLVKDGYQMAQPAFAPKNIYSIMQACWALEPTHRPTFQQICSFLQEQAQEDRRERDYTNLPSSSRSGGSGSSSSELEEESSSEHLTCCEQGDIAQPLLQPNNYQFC
Procedure: uFMS kinase (Seq. ID No. 1) Assay
In this assay, the oxidation of NADH (thus the decrease at A340 nm) was continuously monitored spectrophometrically. The reaction mixture (100 μL) contained FMS (purchased from Millipore) (10 nM), polyE4Y (1 mg/mL), MgCl2 (10 mM), pyruvate kinase (4 units), lactate dehydrogenase (0.7 units), phosphoenol pyruvate (1 mM), NADH (0.28 mM) and ATP (500 μM) in 90 mM Tris buffer containing 0.2% octyl-glucoside and 1% DMSO, pH 7.5. The inhibition reaction was started by mixing serial diluted test compound with the above reaction mixture. The absorption at 340 nm was monitored continuously for 4 hours at 30° C. on Synergy 2 plate reader. The reaction rate was calculated using the 3 to 4 h time frame. Percent inhibition was obtained by comparison of reaction rate with that of a control (i.e., in the absence of test compound). IC50 values were calculated from a series of percent inhibition values determined at a range of inhibitor concentrations using software routines as implemented in the GraphPad Prism software package.
uFMS Kinase Sequence (Y538-End) Used for Screening (Seq. ID No. 1)

osteoclast precursors = experiment: Osteoclast tartrate-resistant acid phosphatase assay; format: cell-based; details: 7-14 days, RANKL and M-CSF
Procedure: Osteoclast Tartrate-Resistant Acid Phosphatase Assay
A serial dilution of test compound was dispensed into a 384-well black clear bottom plate (Nalge Nunc International, Rochester, N.Y.). Compound was diluted by the addition of DMEM media supplemented with 10% characterized fetal bovine serum (Invitrogen, Carlsbad, Calif.). Diluted compound was transferred to a 384-well black clear bottom plate. Two-thousand five hundred osteoclast precursors (Lonza, Walkersville, Md.) were added per well in growth media containing Receptor Activator of Nuclear Factor Kappa-beta ligand (RANKL) and M-CSF (R&D Systems, Minneapolis, Minn.). Plates were incubated for 7-14 days at 37 degrees Celsius, 5% CO2, and 95% humidity to allow differentiation of osteoclast precursors. At the end of the incubation period, 10 μL of supernatant from each well was transferred to a clear 384-well plate. Tartrate-resistant acid phosphatase activity in the supernatant samples was determined using an acid phosphatase assay kit (Sigma, St. Louis, Mo.). Absorbance was measured at 550 nm using a plate reader. Data was analyzed using Prism software (Graphpad, San Diego, Calif.) to calculate IC50 values.

[2] = target: unphosphorylated PDGFRβ kinase (uPDGFRβ, Seq. ID No. 3) (Homo sapiens (Human), UniProt P09619); experiment: Unphosphorylated PDGFRβ kinase assay (coupled pyruvate kinase/lactate dehydrogenase); format: biochemical; details: enzymatic assay, ATP 500 μM
Sequence of unphosphorylated PDGFRβ kinase (uPDGFRβ, Seq. ID No. 3) (P09619 557-1106): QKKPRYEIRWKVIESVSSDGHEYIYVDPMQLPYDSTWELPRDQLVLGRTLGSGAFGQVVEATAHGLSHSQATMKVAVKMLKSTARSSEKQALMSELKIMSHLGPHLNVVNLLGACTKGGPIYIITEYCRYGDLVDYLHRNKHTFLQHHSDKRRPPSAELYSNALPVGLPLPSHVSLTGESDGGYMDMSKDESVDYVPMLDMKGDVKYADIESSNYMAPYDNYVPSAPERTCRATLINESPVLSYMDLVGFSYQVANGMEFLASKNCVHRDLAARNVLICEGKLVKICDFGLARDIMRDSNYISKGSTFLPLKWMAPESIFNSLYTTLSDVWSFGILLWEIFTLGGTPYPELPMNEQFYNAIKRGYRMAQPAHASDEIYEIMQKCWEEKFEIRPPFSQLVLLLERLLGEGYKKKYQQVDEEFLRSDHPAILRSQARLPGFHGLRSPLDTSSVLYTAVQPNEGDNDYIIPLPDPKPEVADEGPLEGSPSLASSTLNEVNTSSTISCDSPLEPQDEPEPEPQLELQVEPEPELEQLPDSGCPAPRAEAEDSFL
Procedure: Unphosphorylated PDGFRβ (uPDGFRβ) Kinase (Seq. ID No. 3) Assay
Activity of unphosphorylated PDGFRβ kinase (uPDGFRβ, Seq. ID No. 3) was determined by following the production of ADP from the kinase reaction with ATP and poly E4Y as substrates through coupling with the pyruvate kinase/lactate dehydrogenase system (e.g., Schindler et al. Science (2000) 289: 1938-1942). In this assay, the oxidation of NADH (thus the decrease at A340 nm) was continuously monitored spectrophometrically. The reaction mixture (100 μL) contained PDGFRβ (DeCode, 15.7 nM), polyE4Y (2.5 mg/mL), MgCl2 (10 mM), pyruvate kinase (4 units), lactate dehydrogenase (0.7 units), phosphoenol pyruvate (1 mM) and NADH (0.28 mM) and ATP (500 μM) in a 90 mM Tris buffer containing 0.2% octyl-glucoside and 1% DMSO, at pH 7.5. The inhibition reaction was started by mixing serial diluted test compound with the above reaction mixture. The absorption at 340 nm was monitored continuously for 4 h at 30° C. on a Polarstar Optima or Synergy 2 plate reader. The reaction rate was calculated using the 1.5 to 2.5 h time frame. Percent inhibition was obtained by comparison of reaction rate with that of a control (i.e., with no test compound). IC50 values were calculated from a series of percent inhibition values determined at a range of inhibitor concentrations using software routines as implemented in the GraphPad Prism software package.
uPDGFRβ Kinase Sequence (Residues 557-1106) Used for Screening (Seq ID No. 3)

[3] = target: unphosphorylated c-KIT kinase (uKIT, Seq. ID no. 2) (Homo sapiens (Human), UniProt P10721); experiment: uKit kinase assay (coupled pyruvate kinase/lactate dehydrogenase); format: biochemical; details: enzymatic assay, ATP 2000 μM
Sequence of unphosphorylated c-KIT kinase (uKIT, Seq. ID no. 2) (P10721 other isoform, or with tags, fused parts or gaps): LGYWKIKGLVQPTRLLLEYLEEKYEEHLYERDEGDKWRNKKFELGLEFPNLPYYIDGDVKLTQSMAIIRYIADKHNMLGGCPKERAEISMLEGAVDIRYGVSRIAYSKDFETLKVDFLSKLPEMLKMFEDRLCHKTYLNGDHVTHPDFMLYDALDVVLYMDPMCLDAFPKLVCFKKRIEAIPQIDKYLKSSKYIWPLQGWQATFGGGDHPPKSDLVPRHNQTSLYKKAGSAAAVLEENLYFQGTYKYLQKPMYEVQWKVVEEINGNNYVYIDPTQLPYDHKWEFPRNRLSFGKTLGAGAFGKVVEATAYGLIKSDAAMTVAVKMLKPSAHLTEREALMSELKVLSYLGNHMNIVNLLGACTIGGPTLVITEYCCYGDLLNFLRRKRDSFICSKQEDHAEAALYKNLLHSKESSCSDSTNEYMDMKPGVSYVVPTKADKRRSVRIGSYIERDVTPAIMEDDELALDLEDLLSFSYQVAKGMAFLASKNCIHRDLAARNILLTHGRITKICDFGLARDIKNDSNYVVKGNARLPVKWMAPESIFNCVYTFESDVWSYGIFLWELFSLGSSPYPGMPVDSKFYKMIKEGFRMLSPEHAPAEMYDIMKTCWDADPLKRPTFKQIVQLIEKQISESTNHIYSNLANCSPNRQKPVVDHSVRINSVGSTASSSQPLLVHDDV
Procedure: uKit Kinase (Seq. ID No. 2) Assay
Activity of unphosphorylated c-KIT kinase (uKIT, Seq. ID no. 2) was determined by following the production of ADP from the KIT kinase reaction with ATP and poly E4Y as substrates through coupling with the pyruvate kinase/lactate dehydrogenase system (e.g., Schindler et al. Science (2000) 289: 1938-1942). In this assay, the oxidation of NADH (thus the decrease at A340 nm) was continuously monitored spectrophometrically. The reaction mixture (100 μl) contained unphosphorylated KIT (12 nM), polyE4Y (1 mg/mL), MgCl2 (10 mM), pyruvate kinase (4 units), lactate dehydrogenase (0.7 units), phosphoenol pyruvate (1 mM), and NADH (0.28 mM) and ATP (2000 μM) in 90 mM Tris buffer containing 0.2% octyl-glucoside and 1% DMSO, pH 7.5. The inhibition reaction was started by mixing serial diluted test compound with the above reaction mixture. The absorption at 340 nm was monitored continuously for 4 hours at 30° C. on Synergy 2 plate reader (BioTech). Reaction rates around 3 to 4 h time frame were used to calculate % inhibitions, from which IC50 values were generated.
uKit with N-Terminal GST Fusion Used for Screening (Seq ID No. 2)

| SMILES | IC50 [1] [nM] | IC50 (osteoclast precursors) [nM] | IC50 [2] [nM] | IC50 [3] [nM] | IC50 (osteoclast precursors; Osteoclast) [nM] | IC50 (M-NFS-60 cells) [nM] |
| --- | --- | --- | --- | --- | --- | --- |
| Cc1nc(NC(=O)N2CC(C)(C)N(C3CCCCC3)C2=O)ccc1Oc1ccnc(-c2cnn(C)c2)c1 [Example 32, 3-cyclohexyl-4,4-dimethyl-N-(6-methyl-5-((2-(1-methyl-1H-pyrazol-4-yl)pyridin-4-yl)oxy)pyridin-2-yl)-2-oxoimidazolidine-1-carboxamide] | 100 to 1000 |  | > 1000 | 100 to 1000 |  |  |
| Cn1cc(-c2cc(Oc3cc(F)c(NC(=O)N4CCN(C5COC5)C4=O)cc3Cl)ccn2)cn1 [Example 104, N-(5-chloro-2-fluoro-4-((2-(1-methyl-1H-pyrazol-4-yl)pyridin-4-yl)oxy)phenyl)-3-(oxetan-3-yl)-2-oxoimidazolidine-1-carboxamide] | 100 to 1000 |  | > 1000 |  | 100 to 1000 | > 1000 |
| Cn1cc(-c2cc(Oc3cc(F)c(NC(=O)N4CCN(CCOC(F)(F)F)C4=O)cc3Cl)ccn2)cn1 [Example 106, N-(5-chloro-2-fluoro-4-((2-(1-methyl-1H-pyrazol-4-yl)pyridin-4-yl)oxy)phenyl)-2-oxo-3-(2-(trifluoromethoxy)ethyl)imidazolidine-1-carboxamide] | 10 to 100 |  | > 1000 |  | 100 to 1000 | > 1000 |
| COC(C)(C)CCN1CCN(C(=O)Nc2cc(Cl)c(Oc3ccnc(-c4cnn(C)c4)c3)cc2F)C1=O [Example 108, N-(5-chloro-2-fluoro-4-((2-(1-methyl-1H-pyrazol-4-yl)pyridin-4-yl)oxy)phenyl)-3-(3-methoxy-3-methylbutyl)-2-oxoimidazolidine-1-carboxamide] | 10 to 100 |  | > 1000 |  | 100 to 1000 | 100 to 1000 |
| Cn1cc(-c2cc(Oc3cc(F)c(NC(=O)N4CCN(CC(O)C(C)(C)C)C4=O)cc3Cl)ccn2)cn1 (stereo not shown) [Example 112, N-(5-chloro-2-fluoro-4-((2-(1-methyl-1H-pyrazol-4-yl)pyridin-4-yl)oxy)phenyl)-3-(2-hydroxy-3,3-dimethylbutyl)-2-oxoimidazolidine-1-carboxamide] | 10 to 100 |  | 100 to 1000 | 10 to 100 |  | 100 to 1000 |

Now from value to compound, other results behind:

| IC50 [1] [nM] | IC50 (osteoclast precursors) [nM] | IC50 [2] [nM] | IC50 [3] [nM] | IC50 (osteoclast precursors; Osteoclast) [nM] | SMILES | IC50 (M-NFS-60 cells) [nM] |
| --- | --- | --- | --- | --- | --- | --- |
| < 10 | < 10 | > 1000 |  |  | Cn1cc(-c2cc(Oc3ccc(NC(=O)N4CCN([C@@H]5CCOC5)C4=O)nc3)ccn2)cn1 [Example 27, (R)—N-(5-((2-(1-methyl-1H-pyrazol-4-yl)pyridin-4-yl)oxy)pyridin-2-yl)-2-oxo-3-(tetrahydrofuran-3-yl)imidazolidine-1-carboxamide] | 10 to 100 |
| 10 to 100 |  | > 1000 | 100 to 1000 |  | Cn1cc(-c2cc(Oc3ccc(NC(=O)N4CC(C)(C)N(C5CCCCC5)C4=O)nc3)ccn2)cn1 [Example 31, 3-cyclohexyl-4,4-dimethyl-N-(5-((2-(1-methyl-1H-pyrazol-4-yl)pyridin-4-yl)oxy)pyridin-2-yl)-2-oxoimidazolidine-1-carboxamide] | > 1000 |
| 10 to 100 |  | > 1000 |  | 100 to 1000 | COCCCN1CCN(C(=O)Nc2cc(Cl)c(Oc3ccnc(-c4cnn(C)c4)c3)cc2F)C1=O [Example 103, N-(5-chloro-2-fluoro-4-((2-(1-methyl-1H-pyrazol-4-yl)pyridin-4-yl)oxy)phenyl)-3-(3-methoxypropyl)-2-oxoimidazolidine-1-carboxamide] | 100 to 1000 |
| 10 to 100 |  | > 1000 |  | 10 to 100 | COC[C@H](C)N1CCN(C(=O)Nc2cc(Cl)c(Oc3ccnc(-c4cnn(C)c4)c3)cc2F)C1=O [Example 105, (S)—N-(5-chloro-2-fluoro-4-((2-(1-methyl-1H-pyrazol-4-yl)pyridin-4-yl)oxy)phenyl)-3-(1-methoxypropan-2-yl)-2-oxoimidazolidine-1-carboxamide] | 100 to 1000 |
| < 10 |  | 100 to 1000 |  | 10 to 100 | Cn1cc(-c2cc(Oc3cc(F)c(NC(=O)N4CCN(C5CCCCC5)C4=O)cc3Cl)ccn2)cn1 [Example 107, N-(5-chloro-2-fluoro-4-((2-(1-methyl-1H-pyrazol-4-yl)pyridin-4-yl)oxy)phenyl)-3-cyclohexyl-2-oxoimidazolidine-1-carboxamide] | 10 to 100 |
| < 10 |  | > 1000 |  |  | Cn1cc(-c2cc(Oc3cc(F)c(NC(=O)N4CCN(C5CCC(F)(F)CC5)C4=O)cc3Cl)ccn2)cn1 [Example 110, N-(5-chloro-2-fluoro-4-((2-(1-methyl-1H-pyrazol-4-yl)pyridin-4-yl)oxy)phenyl)-3-(4,4-difluorocyclohexyl)-2-oxoimidazolidine-1-carboxamide] | 10 to 100 |
| < 10 |  | > 1000 |  | < 10 | Cn1cc(-c2cc(Oc3cc(F)c(NC(=O)N4CCN(C5CCCC5)C4=O)cc3Cl)ccn2)cn1 [Example 111, N-(5-chloro-2-fluoro-4-((2-(1-methyl-1H-pyrazol-4-yl)pyridin-4-yl)oxy)phenyl)-3-cyclopentyl-2-oxoimidazolidine-1-carboxamide] | 10 to 100 |
